According to patent publication US20230165970A1, “COMPOSITIONS AND METHODS FOR THE TREATMENT OF BACTERIAL INFECTIONS” (priority 2017, published 2023):
*1 amine or outer side, *2 acyl side, *3 side chain or, on linkers, in order; H or OH if unused. Where a SMILES comes first, the peptide text is derived from it. Bridges are numbered along the chain shown (N, C = ends). [ ]: non-standard residue; d: D form. The star is where a group is joined. X10 = O=C([C@@H](N[*:1])[C@H](O)CCc1ccccc1)[*:2]; Propargyl(OCH2CH2)4CO = C#CCOCCOCCOCCOCCC(=O)*; X11 = CCCCCCCC[C@@H](O)[C@H](N[*:1])C(=O)[*:2]; X1 = CCCCCC[C@@H](O)[C@H](N[*:1])C(=O)[*:2]; Nle = CCCC[C@H](N)C(=O)O; Dab = NCC[C@H](N)C(=O)O

Test system: LPS from E. coli O111:B4
Test: LPS binding/neutralization by Limulus Amebocyte Lysate (LAL) assay
Format: biochemical
Details: LPS 1-10,000 ng/mL, test article 0.25-10 μM; sum of AUCs relative to maximal AUC (Table 14)
Protocol: The LAL assay (Charles River) was used to determine the binding affinity of test articles to LPS.
(§1) For the assay, 25 μL purified LPS from E. coli O111:1B4 (Sigma) at doses ranging from 1-10,000 ng/mL were incubated with 25 μL of test article at concentrations ranging from 0.25-10 NM. After 5 min incubation at 37° C., 50 μL of LAL reagent, which reacts with lipid A portion from LPS, was added to corresponding wells. After 15 min, absorbance at 405 nm was read on EnSpire plate reader (Perkin Elmer). The % LPS neutralization is calculated relative to a PBS control (background) and LPS control at each concentration (positive control).
LPS neutralization=(1−(absorbance test article−PBS with LAL reagent)/(absorbance no test article−PBS with LAL reagent))×100
To obtain a single value of LPS neutralization for each test article, the area under the curve (AUC) for dose-response of test articles from […] for each LPS concentration was calculated using Prism 7 software. The % LPS neutralization is the sum of the AUCs for each LPS concentration determined relative to the maximal AUC achievable×100.
as §1, with “O111:B4” for “O111:1B4”, “μM.” for “NM.”

| Compound | % LPS neutralization of TM [%] |
| --- | --- |
| C#CCOCCOCCOCCOCCC(=O)N[C@@H](CCN)C(=O)N[C@H](C(=O)N[C@@H](CCN)C(=O)N[C@H]1CCNC(=O)[C@H]([C@@H](C)O)NC(=O)[C@H](CCN)NC(=O)[C@H](CCN)NC(=O)[C@H](CC(C)C)NC(=O)[C@@H](Cc2ccccc2)NC(=O)[C@H](CCN)NC1=O)[C@H](O)CCCCCCCC [Int-84] ({Propargyl(OCH2CH2)4CO}-[Dab][X11][Dab][Dab][Dab][dF]L[Dab][Dab]T; lactam 4-C) | 53.7 |
| C#CCOCCOCCOCCOCCC(=O)N[C@@H](CCCC)C(=O)N[C@@H](CCN)C(=O)N[C@H](C(=O)N[C@@H](CCN)C(=O)N[C@H]1CCNC(=O)[C@H]([C@@H](C)O)NC(=O)[C@H](CCN)NC(=O)[C@H](CCN)NC(=O)[C@H](CC(C)C)NC(=O)[C@@H](Cc2ccccc2)NC(=O)[C@H](CCN)NC1=O)[C@H](O)CCCCCC [Int-80] ({Propargyl(OCH2CH2)4CO}-[Nle][Dab][X1][Dab][Dab][Dab][dF]L[Dab][Dab]T; lactam 5-C) | 55.7 |
| C#CCOCCOCCOCCOCCC(=O)N[C@@H](CCN)C(=O)N[C@H](C(=O)N[C@@H](CCN)C(=O)N[C@H]1CCNC(=O)[C@H]([C@@H](C)O)NC(=O)[C@H](CCN)NC(=O)[C@H](CCN)NC(=O)[C@H](CC(C)C)NC(=O)[C@@H](Cc2ccccc2)NC(=O)[C@H](CCN)NC1=O)[C@H](O)CCc1ccccc1 [Int-83] ({Propargyl(OCH2CH2)4CO}-[Dab][X10][Dab][Dab][Dab][dF]L[Dab][Dab]T; lactam 4-C) | 30.9 |
